Measurements as given in ChEMBL document CHEMBL5518176, “Identification of novel aminopyrimidine derivatives for the treatment of mutant NSCLC” (Eur J Med Chem, 2024).

Experiments:
Assay type in all cases: functional, cell-based
NCI-H1975 [1] = assay: Antiproliferative activity against human NCI-H1975 cells harboring EGFR L858R/T790M/C797S triple mutant assessed as inhibition of cell growth incubated for 72 hrs by CellTiter-Glo luminescent assay; conditions: NCI-H1975, 72 h
NCI-H1975 [2] = assay: Antiproliferative activity against human NCI-H1975 cells harboring EGFR L858R/T790M double mutant assessed as inhibition of cell growth incubated for 72 hrs by MTT assay; conditions: NCI-H1975, 72 h
BaF3 [3] = assay: Antiproliferative activity against mouse BaF3 cells harboring EGFR L858R/T790M/C797S triple mutant assessed as inhibition of cell growth incubated for 72 hrs by CellTiter-Glo luminescent assay; conditions: BaF3, 72 h
BaF3 [4] = assay: Antiproliferative activity against mouse BaF3 cells harboring EGFR Del19/T790M/C797S triple mutant assessed as inhibition of cell growth incubated for 72 hrs by CellTiter-Glo luminescent assay; conditions: BaF3, 72 h
A549 = assay: Antiproliferative activity against human A549 cells assessed as inhibition of cell growth incubated for 72 hrs by MTT assay; conditions: A549, 72 h
NCI-H1975 [5] = assay: Antiproliferative activity against human NCI-H1975 cells harboring EGFR L858R/T790M/C797S triple mutant assessed as inhibition of cell growth incubated for 72 hrs in presence of osimertinib by CellTiter-Glo luminescent assay; conditions: NCI-H1975, 72 h

| SMILES | IC50 (NCI-H1975 [1]) | IC50 (NCI-H1975 [2]) | IC50 (BaF3 [3]) | IC50 (BaF3 [4]) | IC50 (A549) | IC50 (NCI-H1975 [5]) |
| --- | --- | --- | --- | --- | --- | --- |
| Nc1nccc(Nc2ccc(NC(=O)C(c3ccccc3)N3Cc4cc(-c5ccc(N6CCNCC6)cc5)ccc4C3=O)c(Cl)c2)n1 (stereo not given) | 2320 nM | 4400 nM | 1240 nM | 860 nM | 3960 nM | – |
| O=C(Nc1nccs1)[C@@H](c1cc(F)ccc1O)N1Cc2ccc(-c3ccc(N4CCNCC4)cc3)cc2C1=O | 3660 nM | – | – | – | – | 1250 nM |
| O=C(Nc1ccc(Nc2ccncn2)cc1)C(c1ccccc1)N1Cc2cc(-c3ccc(N4CCNCC4)cc3)ccc2C1=O (stereo not given) | – | 9950 nM | 2550 nM | 2450 nM | 5130 nM | – |
| Nc1cc(Nc2ccc(NC(=O)C(c3ccccc3)N3Cc4cc(-c5ccc(N6CCNCC6)cc5)ccc4C3=O)cc2)ncn1 (stereo not given) | > 10000 nM | > 20000 nM | 3960 nM | 1520 nM | > 20000 nM | – |
| Nc1nccc(Nc2ccc(NC(=O)C(c3ccccc3)N3Cc4cc(-c5ccc(N6CCNCC6)cc5)ccc4C3=O)cc2F)n1 (stereo not given) | 1530 nM | 7800 nM | 1420 nM | 1720 nM | 4520 nM | – |
| Nc1nccc(Nc2cccc(NC(=O)C(c3ccccc3)N3Cc4cc(-c5ccc(N6CCNCC6)cc5)ccc4C3=O)c2)n1 (stereo not given) | 4160 nM | 3200 nM | 1460 nM | 890 nM | 2210 nM | – |
| Nc1nccc(Nc2ccc(NC(=O)C(c3ccccc3)N3Cc4cc(-c5ccc(N6CCNCC6)cc5)ccc4C3=O)cc2Cl)n1 (stereo not given) | 1550 nM | 3320 nM | 1440 nM | 860 nM | 4200 nM | – |
| Nc1nccc(Nc2ccc(NC(=O)C(c3ccccc3)N3Cc4cc(-c5ccc(N6CCNCC6)cc5)ccc4C3=O)c(F)c2)n1 (stereo not given) | 1430 nM | 2440 nM | 1430 nM | 720 nM | 1780 nM | – |
| Nc1nccc(Nc2ccc(NC(=O)C(c3ccccc3)N3Cc4ccccc4C3=O)cc2)n1 (stereo not given) | > 10000 nM | > 20000 nM | > 10000 nM | > 10000 nM | > 20000 nM | – |
| Nc1nccc(Nc2ccc(NC(=O)C(c3ccccc3)N3Cc4ccc(-c5ccc(N6CCNCC6)cc5)cc4C3=O)cc2)n1 (stereo not given) | 1640 nM | 2930 nM | 1280 nM | 1210 nM | 4020 nM | – |
| CCN(CC)c1ccc(-c2ccc3c(c2)CN(C(C(=O)Nc2ccc(Nc4ccnc(N)n4)cc2)c2ccccc2)C3=O)cc1 (racemic) | – | 11600 nM | 1190 nM | 1190 nM | 15700 nM | – |
